Assay results reported in patent US12317897B2, “Methods of controlling or preventing infestation of vegetable, tomato and potato plants by phytopathogenic microorganisms” (SYNGENTA CROP PROTECTION AG, priority 2017, dated 2025).

Tests used:
Type in all cases: in vivo
Alternaria solani = Alternaria solani (early blight) on potato, field trial, in-furrow spray at planting; conditions: 250 g AI/ha, 89 days after planting
Protocol: Alternaria solani on Potato: A potato field trial was carried out in Tompkins, New York, USA in 2018 to evaluate the efficacy of different compounds against early blight disease caused by Alternaria solani. The potato tubers were applied in-furrow at planting by using boom sprayer with a flat fan nozzle. The disease occurred beginning of August and an assessment on disease severity and was done Sep. 5, 2018. [table] [table] [table] [table] [table] [table] Assessments: Pest Severity, 89 Days after Planting

Fusarium oxysporum [1] = assay: Fusarium oxysporum on okra, field trial, drench at planting; conditions: 375 g AI/ha, 60 days after planting
Protocol: Fusarium oxysporum on Okra:
An okra field trial was carried out in Kuppanur, Coimbatore, India in 2018 to evaluate the efficacy of different compounds against Fusarium oxysporum in okra.
The okra seeds were planted on Jun. 29, 2018 and directly afterwards drench applied with the compounds using a water volume of 50 ml per plant. The disease occurred two weeks after planting and an assessment on disease incidence and was done Aug. 28, 2018.
Assessments: Pest Incidence, 60 Days after Planting

Fusarium oxysporum [2] = assay: Fusarium oxysporum in melon, greenhouse trial, drench at planting; conditions: 60 g AI/ha, 69 days after planting
Protocol: Fusarium oxysporum in Melon:
A melon greenhouse trial was carried out in El Ejido, Almeria, Spain in 2017 to evaluate the efficacy of different compounds against Fusarium oxysporum in melon.
The melon transplants were planted on May 5, 2017 and the afterwards drench applied with the compounds using a water volume of 100 ml per plant.
In order to increase the disease pressure each plot has been inoculated with 900 ml Fusarium oxysporum suspension with a concentration of 100′000 spores per millilitre of water three days before transplanting. The first disease symptoms were visible three weeks after transplanting and an assessment on disease severity and was done 69 days after transplanting on Jul. 13, 2017.
Assessments: Pest Severity, 69 Days after Planting

Fusarium oxysporum [3] = assay: Fusarium oxysporum in tomato, greenhouse trial, drench at planting; conditions: 100 g AI/ha, 132 days after planting
Protocol: Fusarium oxysporum in Tomato:
A tomato greenhouse trial was carried out in Sanlucar de Barrameda, Cadiz, Spain in 2017 to evaluate the efficacy of different compounds against Fusarium oxysporum in tomato.
Three week old tomato plants were transplanted on Apr. 7, 2017 and the afterwards drench applied with the compounds using a water volume of 100 ml per plant.
In order to increase the disease pressure 60 ml Fusarium oxysporum suspension with a concentration of 1′000′000 spores per milliliter of water was drenched directly in the planting hole were the plants will be transplanted the next day. The assessment on disease incidence and was done 132 days after transplanting on Aug. 17, 2017.
Assessments: Pest Incidence, 132 Days after Planting

| Structure (SMILES) | Pest severity (%) (Alternaria solani; potato Red Norland, CHECK 97.25) | Emax at 250 g/ha (Alternaria solani; Alternaria solani, 2136 h, potato, read-out: % efficacy based on pest severity) [%] | Pest incidence (%) (Fusarium oxysporum [1]; okra Samrat, CHECK 84.20) | Emax at 375 g/ha (Fusarium oxysporum [1]; Fusarium oxysporum, in Abelmoschus esculentus, soil, 1440 h, okra, read-out: % efficacy based on pest incidence) [%] | Pest severity (%) (Fusarium oxysporum [2]; melon Brisa, CHECK 82.41) | % efficacy based on pest severity (Fusarium oxysporum [2]; melon) [%] | Pest incidence (%) (Fusarium oxysporum [3]; tomato Irati, CHECK 78.33) | % efficacy based on pest incidence (Fusarium oxysporum [3]; tomato) [%] |
| --- | --- | --- | --- | --- | --- | --- | --- | --- |
| O=C(NCCc1ncc(C(F)(F)F)cc1Cl)c1ccccc1C(F)(F)F [COMPOUND 2 SC 500, Fluopyram] | 19.75, C % | 79.7 | 20.50, C % | 75.7 |  |  |  |  |
| CON(C(=O)c1cn(C)nc1C(F)F)C(C)Cc1c(Cl)cc(Cl)cc1Cl (centres unmarked) [COMPOUND 2 SC 200, PYDIFLUMETOFEN] |  |  |  |  | 16.67, B % | 79.77 | 15.00, B % | 80.85 |
